Marks after values point to notes of the source that are not given here.
What was measured:
HAC15 cells [1] = experiment: Cortisol production by HAC15 cells (immunoassay); type: cell-based, Human; conditions: HAC15, 10 nM ACTH
Experimental: Human adrenocortical carcinoma HAC15 and mouse corticotroph AtT20 cells were used, purchased as a kind gift by Dr. W. Rainey, and obtained from Dr. J. Tooze (European Organization for Molecular Biology), respectively. Both cell lines were cultured in 75 cm^2 flasks at 37° C. in a humidified incubator (Greiner Bio-One, Alphen a/d Rijn, the Netherlands) at 5% CO2. Dulbecco's Modified Eagle Medium F12 containing 5% fetal calf serum was used for HAC15, whereas AtT20 cells were cultured in Dulbecco's minimal essential medium (DMEM) supplemented with 10% fetal calf serum. Both mediums were supplemented with L-glutamine (2 mmol/L) and penicillin (10^5 U/L). Short tandem repeat (str) profiling using a Powerplex Kit (Promega, Leiden, the Netherlands) of HAC15 and AtT20 gave results consistent with the ATCC database, confirming the identity of both cell lines. Medium and supplements were obtained from Invitrogen, Breda, the Netherlands. Once a week, cells were harvested with trypsin (0.05%)-EDTA (0.53 mM) and resuspended in culture medium. Levoketoconazole (COR-003) and racemic ketoconazole (both from Cortendo AB) were dissolved in absolute ethanol (EtOH), according to manufacturer's instructions, and stored at −20° C. at a stock concentration of […]. At the start of each experiment, both drugs were freshly prepared and diluted in EtOH in the correct concentrations. Synacten (synthetic ACTH, Novartis Pharma A.G.) stock concentration was stored at 4° C. and dissolved in culture medium at the day of use. The final concentrations of ACTH were chosen based on a dose-response curve in HAC15 cells and previously reported studies in the literature. For HAC15, 200,000 and 100,000 cells were plated in 0.5 ml medium in 24 well plates for experiments of 1 and 3 days, respectively. […]
Cortisol concentrations were measured in the supernatant using a chemiluminescence immunoassay system (Immulite 2000XPi; Siemens DPC Inc., Los Angeles, Calif., USA). In addition, we carried out multi-steroid analysis by liquid chromatography/mass spectrometry (LC/MS-MS) to accurately quantify androstenedione, corticosterone, cortisol, 11-deoxycortisol, DHEA, DHEAS, progesterone, 17-hydroxyprogesterone, and testosterone. […] Steroids were quantified with respect to a calibration series, with internal standards. Steroids were quantified on a Xevo TQS LC-MS/MS (Waters Chromatography).
Statistical analysis was performed using Graphpad Prism 6.0 (Graphpad Software, San Diego, CA). […] Effects of both compounds on the steroid profile were measured as absolute change compared to control and compared using the Student's t-test. When assessing differences between effects of both compounds, the percentage change was evaluated and compared in order to correct for differences in the vehicle treated control cells. […]

[2] = test system: EAS associated adrenal hyperplasia cultures; experiment: Cortisol production in primary EAS associated adrenal hyperplasia cultures; type: cell-based, human; conditions: EAS associated hyperplasia no. 1, ACTH (85 μM), mean percentage increase of cortisol production compared to control
Experimental: (§1) To obtain primary cultures, adrenal specimens (adrenocortical adenomas, adrenal hyperplasias and adrenocortical carcinomas) were collected after adrenalectomy at the department of Surgery, Erasmus University Medical Center, Rotterdam, the Netherlands, between April 2016 and May 2018. The study was conducted under guidelines that have been approved by the Medical Ethics Committee of the Erasmus Medical Center and informed consent was obtained from all patients. Immediately after surgery, specimens were minced into small pieces of 2-3 mm^3, washed in culture medium and centrifuged for 5 minutes at 600 g. The tissue was stored overnight in culture medium at 4° C., where after the tissue was centrifuged again and the supernatant was removed. Fragments were dissociated using 10-25 ml collagenase type 1 (2 mg/ml: Sigma-Aldrich), followed by incubation at 37° C. for up to two hours. Ficoll (GE healthcare) density gradient separation was used once or twice as required in order to separate contaminating red blood cells from the tumor cells. Cell viability and cell amount were counted by trypan blue exclusion. Dissociated cells were plated at a density of 10^5 cells per well. ACTH-secreting corticotroph pituitary adenoma tissue from patients with Cushing's disease (n=2) was available after transsphenoidal surgery. Single-cell suspensions of the pituitary adenoma tissues were prepared as previously described in detail.
(§2) Owing to a limited number of cells obtained from the specimens, not all experiments were carried out in every primary culture.
(§3) Cortisol concentrations were measured in the supernatant using a chemiluminescence immunoassay system (Immulite 2000XPi; Siemens DPC Inc., Los Angeles, Calif., USA). In addition, we carried out multi-steroid analysis by liquid chromatography/mass spectrometry (LC/MS-MS) to accurately quantify androstenedione, corticosterone, cortisol, 11-deoxycortisol, DHEA, DHEAS, progesterone, 17-hydroxyprogesterone, and testosterone. Concentrations that were tested on the LC/MS-MS were closest to 50% inhibition or maximal inhibition of cortisol as determined by the immunoassay. Steroids were quantified with respect to a calibration series, with internal standards. Steroids were quantified on a Xevo TQS LC-MS/MS (Waters Chromatography).
(§4) Statistical analysis was performed using Graphpad Prism 6.0 (Graphpad Software, San Diego, CA). Non-linear regression curve fitting program was used to calculate the half maximal inhibitory concentrations (IC50) on cortisol production. Effects of both compounds on the steroid profile were measured as absolute change compared to control and compared using the Student's t-test. When assessing differences between effects of both compounds, the percentage change was evaluated and compared in order to correct for differences in the vehicle treated control cells. Values of P<0.05 were considered statistically significant and data are presented as mean SEM.

[3] = test system: primary human adrenocortical carcinoma cultures; experiment: Cortisol production in primary adrenocortical carcinoma cultures; type: cell-based; conditions: ACC no. 3, ACTH (85 μM), mean percentage increase of cortisol production compared to control
Experimental: as §1, §2, §3, §4

HAC15 cells [4] = experiment: Steroid profile by LC/MS-MS in HAC15 cells; type: cell-based, Human; conditions: HAC15
Experimental: Human adrenocortical carcinoma HAC15 and mouse corticotroph AtT20 cells were used, purchased as a kind gift by Dr. W. Rainey, and obtained from Dr. J. Tooze (European Organization for Molecular Biology), respectively. Both cell lines were cultured in 75 cm^2 flasks at 37° C. in a humidified incubator (Greiner Bio-One, Alphen a/d Rijn, the Netherlands) at 5% CO2. Dulbecco's Modified Eagle Medium F12 containing 5% fetal calf serum was used for HAC15, whereas AtT20 cells were cultured in Dulbecco's minimal essential medium (DMEM) supplemented with 10% fetal calf serum. Both mediums were supplemented with L-glutamine (2 mmol/L) and penicillin (10^5 U/L). Short tandem repeat (str) profiling using a Powerplex Kit (Promega, Leiden, the Netherlands) of HAC15 and AtT20 gave results consistent with the ATCC database, confirming the identity of both cell lines. Medium and supplements were obtained from Invitrogen, Breda, the Netherlands. Once a week, cells were harvested with trypsin (0.05%)-EDTA (0.53 mM) and resuspended in culture medium. Levoketoconazole (COR-003) and racemic ketoconazole (both from Cortendo AB) were dissolved in absolute ethanol (EtOH), according to manufacturer's instructions, and stored at −20° C. at a stock concentration of […]. At the start of each experiment, both drugs were freshly prepared and diluted in EtOH in the correct concentrations. Synacten (synthetic ACTH, Novartis Pharma A.G.) stock concentration was stored at 4° C. and dissolved in culture medium at the day of use. The final concentrations of ACTH were chosen based on a dose-response curve in HAC15 cells and previously reported studies in the literature. For HAC15, 200,000 and 100,000 cells were plated in 0.5 ml medium in 24 well plates for experiments of 1 and 3 days, respectively. For AtT20, cell amounts were 100,000 and 30,000. One day after seeding the HAC15 cells, the medium was refreshed and cells were treated 1 or 3 days in quadruplicate with levoketoconazole or racemic ketoconazole (0.05-5 μM), with or without 10 nM ACTH. To study effects of both compounds on pituitary AtT20 cells, concentrations of 0.1 to 10 μM of both drugs were used. Controls were vehicle treated. […] Media were collected after 1 or 3 days of incubation and stored at −20° C. until analysis. All cell culture experiments were carried out at least twice.
as §3, §4

[5] = test system: EAS associated adrenal hyperplasia no. 1 primary culture; experiment: Steroid profile by LC/MS-MS in EAS associated adrenal hyperplasia no. 1; type: cell-based, human; conditions: EAS associated adrenal hyperplasia no. 1
Experimental: as §1
Primary culture conditions for primary cultures were similar as described in the section ‘cell culture and compounds’, but with small adjustments: ACTH was used at a concentration of 85 pM (250 pg/mL), treatment was started 3-4 days after plating of the cells and cells were incubated for 3 days, and; for pituitary primary cultures, levoketoconazole and racemic ketoconazole were only tested at a concentration of 1 μM. Owing to a limited number of cells obtained from the specimens, not all experiments were carried out in every primary culture.
as §3, §4

With “ACTH: Synacten (synthetic ACTH, Novartis Pharma A.G.), used to stimulate cortisol production” the “mean increase in cortisol by ACTH stimulation” value (HAC15 cells [1]; 1 day of incubation) was 34%, the “mean increase in cortisol by ACTH stimulation” value (HAC15 cells [1]; 3 days of incubation) was 61% and the “ACTH stimulated cortisol (%)” value [2] was “+228%”. For the same substance, the “ACTH stimulated cortisol (%)” value [3] was “+67% *”, the “increase of corticosterone under ACTH” value (HAC15 cells [4]) was 359% and the “increase of progesterone under ACTH” value (HAC15 cells [4]) was 7%. The “change of progesterone by ACTH stimulation” value [5] was −11%, the “change of testosterone by ACTH stimulation” value [5] was “did not change” and the “mean increase of corticosterone, 17-OHP, 11-DOC, cortisol and androstenedione by ACTH stimulation” value [5] was “+111%”.
